Assay results as given in patent publication US12240844B2 (Voronoi, Inc., priority 2019, dated 2025).

Columns and labels:
[1] = system: SHP-77; assay: SHP-77 cancer cell proliferation inhibition (Cell Titer-Glo); format: cell-based; settings: Homo sapiens, SHP77, SHP-77 small cell lung cancer cell line, 72 hours
Summary of the method: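 GI50 comes from CellTiter-Glo luminescence, read 10 min after reagent addition at RT, following 72 h compound treatment. Eleven concentrations were used (⅓ steps, highest 10 μM final) on 2000 cells/well. MDA-MB-231 and MDA-MB-468 were grown in DMEM, SHP-77 in RPMI.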

[2] = target: LRRK2 (G2019S) (Homo sapiens, UniProt Q5S007, G2019S); assay: scanMAX Kinase panel (DiscoverX), % control; format: binding; set-up: purchased DiscoverX; settings: <35% = active
Chain of LRRK2 (G2019S) (Q5S007 whole entry G2019S): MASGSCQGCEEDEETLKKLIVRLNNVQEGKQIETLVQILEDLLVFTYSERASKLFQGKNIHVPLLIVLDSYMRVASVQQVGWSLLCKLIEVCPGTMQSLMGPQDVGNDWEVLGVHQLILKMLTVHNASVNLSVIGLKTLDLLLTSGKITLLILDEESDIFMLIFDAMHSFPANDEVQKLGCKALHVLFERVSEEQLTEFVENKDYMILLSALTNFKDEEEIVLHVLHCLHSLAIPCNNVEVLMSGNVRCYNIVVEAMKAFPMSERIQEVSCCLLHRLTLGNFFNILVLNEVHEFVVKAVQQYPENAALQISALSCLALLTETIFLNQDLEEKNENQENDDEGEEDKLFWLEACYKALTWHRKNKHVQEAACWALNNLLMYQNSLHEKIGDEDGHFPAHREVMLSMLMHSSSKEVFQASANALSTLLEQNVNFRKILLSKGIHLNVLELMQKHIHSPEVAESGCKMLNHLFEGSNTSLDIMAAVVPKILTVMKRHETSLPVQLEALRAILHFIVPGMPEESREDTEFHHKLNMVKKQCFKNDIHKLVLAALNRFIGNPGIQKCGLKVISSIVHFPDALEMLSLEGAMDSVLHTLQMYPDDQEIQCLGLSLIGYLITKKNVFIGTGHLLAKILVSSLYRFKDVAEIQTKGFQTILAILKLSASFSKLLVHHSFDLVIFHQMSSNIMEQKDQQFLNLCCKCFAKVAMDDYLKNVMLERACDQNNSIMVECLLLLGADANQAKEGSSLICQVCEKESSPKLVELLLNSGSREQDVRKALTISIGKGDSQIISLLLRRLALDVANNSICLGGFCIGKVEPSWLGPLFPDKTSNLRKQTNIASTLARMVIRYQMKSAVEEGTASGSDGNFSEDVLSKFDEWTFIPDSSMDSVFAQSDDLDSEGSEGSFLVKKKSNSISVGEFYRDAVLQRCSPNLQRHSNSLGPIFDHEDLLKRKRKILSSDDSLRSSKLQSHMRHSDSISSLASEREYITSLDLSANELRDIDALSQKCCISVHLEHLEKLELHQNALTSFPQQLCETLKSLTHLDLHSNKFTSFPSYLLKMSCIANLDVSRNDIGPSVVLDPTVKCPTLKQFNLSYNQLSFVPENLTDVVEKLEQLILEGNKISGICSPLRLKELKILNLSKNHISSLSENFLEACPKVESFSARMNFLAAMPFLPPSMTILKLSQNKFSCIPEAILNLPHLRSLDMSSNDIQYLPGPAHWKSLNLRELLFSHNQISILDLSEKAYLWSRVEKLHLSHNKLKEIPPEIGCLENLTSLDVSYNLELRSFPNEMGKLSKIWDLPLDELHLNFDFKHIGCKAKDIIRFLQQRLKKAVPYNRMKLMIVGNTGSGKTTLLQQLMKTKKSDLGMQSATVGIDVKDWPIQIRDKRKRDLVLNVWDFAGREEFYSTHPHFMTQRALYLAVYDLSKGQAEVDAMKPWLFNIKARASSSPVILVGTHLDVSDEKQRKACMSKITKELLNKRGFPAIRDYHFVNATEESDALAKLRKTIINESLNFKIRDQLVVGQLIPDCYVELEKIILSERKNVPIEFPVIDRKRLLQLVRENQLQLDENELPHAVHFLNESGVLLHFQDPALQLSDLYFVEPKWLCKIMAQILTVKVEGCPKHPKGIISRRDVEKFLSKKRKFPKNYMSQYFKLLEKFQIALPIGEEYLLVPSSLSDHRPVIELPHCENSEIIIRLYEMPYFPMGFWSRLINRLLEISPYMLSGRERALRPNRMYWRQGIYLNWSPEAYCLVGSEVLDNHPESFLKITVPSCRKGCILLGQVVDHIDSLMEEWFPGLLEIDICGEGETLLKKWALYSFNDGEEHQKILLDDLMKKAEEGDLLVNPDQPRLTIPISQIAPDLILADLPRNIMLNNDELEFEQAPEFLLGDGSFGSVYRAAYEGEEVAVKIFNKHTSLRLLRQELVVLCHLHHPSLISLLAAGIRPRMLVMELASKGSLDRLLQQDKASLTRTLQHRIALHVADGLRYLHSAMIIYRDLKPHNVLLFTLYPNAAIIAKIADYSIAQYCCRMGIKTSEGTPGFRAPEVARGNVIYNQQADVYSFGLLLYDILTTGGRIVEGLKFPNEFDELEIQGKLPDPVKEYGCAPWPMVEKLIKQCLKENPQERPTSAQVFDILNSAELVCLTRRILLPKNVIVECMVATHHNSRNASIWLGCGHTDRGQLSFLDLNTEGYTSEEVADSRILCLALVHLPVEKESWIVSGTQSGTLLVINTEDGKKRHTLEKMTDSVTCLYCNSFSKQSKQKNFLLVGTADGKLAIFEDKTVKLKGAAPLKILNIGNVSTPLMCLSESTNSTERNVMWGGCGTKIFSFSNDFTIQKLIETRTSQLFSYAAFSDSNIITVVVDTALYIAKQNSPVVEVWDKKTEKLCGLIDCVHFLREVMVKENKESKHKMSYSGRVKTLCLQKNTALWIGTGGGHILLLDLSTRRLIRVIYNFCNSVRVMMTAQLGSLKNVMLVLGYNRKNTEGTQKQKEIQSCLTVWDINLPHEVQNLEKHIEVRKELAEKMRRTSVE
Description: (§1) Specifically, for Examples 162, 160, 105, 217, 205, 96, 207, 184, 206, 221, 238, and 237 selected among the example compounds of the present invention, it was decided to measure enzyme (kinase) selectivity by DiscoverX, and the experiment was conducted using a panel for scanMAX™ Kinase analysis. At this time, the concentration of the drug treated with the enzyme was 1 uM in DMSO, the control percentage (% control) was determined in the same way as in Equation 1 below, and the results were shown in Table 6 below. [formula] Here, the positive control refers to a compound showing a control percentage of 0%, and the negative control is DMSO, indicating a control percentage of 100%. Also, in the enzyme selectivity of the present invention, if the control percentage for each enzyme was <35% (i.e., less than 35%), it was determined to have activity against the relevant enzyme.

[3] = target: LRRK2 (Homo sapiens, UniProt Q5S007); assay: scanMAX Kinase panel (DiscoverX), % control; format: binding; set-up: purchased DiscoverX; settings: <35% = active
Chain of LRRK2 (Q5S007 whole entry): as the sequence (Q5S007 whole entry G2019S) above, with S2019G counted along it
Description: as §1

[4] = target: T1, TTK (Homo sapiens, UniProt P33981); assay: scanMAX Kinase panel (DiscoverX), % control; format: binding; set-up: purchased DiscoverX; settings: <35% = active
T1 sequence (P33981 1-857): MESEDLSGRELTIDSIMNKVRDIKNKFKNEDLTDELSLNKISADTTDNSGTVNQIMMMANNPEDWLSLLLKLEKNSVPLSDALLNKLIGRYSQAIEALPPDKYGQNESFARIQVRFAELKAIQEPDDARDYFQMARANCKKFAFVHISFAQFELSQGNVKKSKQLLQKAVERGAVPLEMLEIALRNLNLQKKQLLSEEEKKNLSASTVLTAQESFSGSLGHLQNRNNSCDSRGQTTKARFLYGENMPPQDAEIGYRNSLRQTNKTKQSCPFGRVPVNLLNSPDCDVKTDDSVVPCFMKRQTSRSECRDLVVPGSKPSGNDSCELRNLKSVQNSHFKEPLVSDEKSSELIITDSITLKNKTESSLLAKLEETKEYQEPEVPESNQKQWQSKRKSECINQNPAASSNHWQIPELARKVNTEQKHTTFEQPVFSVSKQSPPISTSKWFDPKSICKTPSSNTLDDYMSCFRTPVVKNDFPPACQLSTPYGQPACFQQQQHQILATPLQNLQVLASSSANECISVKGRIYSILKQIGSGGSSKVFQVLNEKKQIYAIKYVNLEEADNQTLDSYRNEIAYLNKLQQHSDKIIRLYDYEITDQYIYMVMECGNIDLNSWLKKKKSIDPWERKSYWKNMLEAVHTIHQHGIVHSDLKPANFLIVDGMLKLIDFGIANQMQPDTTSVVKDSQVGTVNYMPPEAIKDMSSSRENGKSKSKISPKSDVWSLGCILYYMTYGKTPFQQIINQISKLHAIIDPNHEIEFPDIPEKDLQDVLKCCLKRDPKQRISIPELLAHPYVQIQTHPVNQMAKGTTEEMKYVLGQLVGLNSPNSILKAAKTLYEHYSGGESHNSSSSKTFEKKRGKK
Description: as §1

[5] = system: human DYRK1A and Tau; assay: Tau phosphorylation inhibition, ClariCELL Kinase Cell-Based Assay (Carnabio)
Summary of the method: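 HEK293 cells transiently expressing human DYRK1A and Tau were exposed to compound, then lysed. Released Tau was captured on plate and its phosphorylation quantified by ELISA with a phospho-Tau-specific antibody.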

[6] = system: IL-6; assay: IL-6 secretion inhibition in LPS-treated THP-1 cells (ELISA); format: cell-based; settings: Homo sapiens, compound 0.5 μM, LPS 500 ng/ml, 24 hours, read-out: THP1/IL6 (% inhib)
Summary of the method: (§2)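 Human monocytic THP-1 cells were pre-cultured 16 h at 37° C., then treated with compound at 0.5 μM final, followed by LPS at 500 ng/ml final. After 24 h, IL-6 and TNF-α in culture supernatant were quantified by ELISA with absorbance read at 450 nm.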

[7] = system: TNF-α; assay: TNF-α secretion inhibition in LPS-treated THP-1 cells (ELISA); format: cell-based; settings: Homo sapiens, compound 0.5 μM, LPS 500 ng/ml, 24 hours, read-out: THP-1/TNF-a (% inhib)
Summary of the method: as §2

Row | Structure (SMILES) | GI50 [1] [nM] | remaining binding at 1 µM [2] [%] | remaining binding at 1 µM [3] [%] | remaining binding at 1 µM [4] [%] | inhibition at 0.25 µM [5] [%] | inhibition at 0.5 µM [5] [%] | inhibition at 1 µM [5] [%] | inhibition at 0.5 µM [6] [%] | inhibition at 0.5 µM [7] [%]
1 | CCNc1cc(Nc2ccc(C(=O)N3CCC(N4C[C@@H]5C[C@H]4CO5)CC3)c3c2OCC3)nc2[nH]cc(C(F)(F)F)c12 [Example 105, (4-((1S,4S)-2-oxa-5-azabicyclo[2.2.1]heptan-5-yl)piperidin-1-yl)(7-((4-(ethylamino)-3-(trifluoromethyl)-1H-pyrrolo[2,3-b]pyridin-6-yl)amino)-2,3-dihydrobenzofuran-4-yl)methanone] | – | 0 | 0 | 2.6 | 60.2 | 74 | 92 | 33.2 | 1.7
2 | CNc1cc(Nc2ccc(S(=O)(=O)N3CCC(N4CCOCC4)CC3)cc2OC)nc2[nH]cc(C(F)(F)F)c12 [Example 184, N^6-(2-methoxy-4-((4-morpholinopiperidin-1-yl)sulfonyl)phenyl)-N^4-methyl-3-(trifluoromethyl)-1H-pyrrolo[2,3-b]pyridine-4,6-diamine] | 101 to 300 | 3.2 | 3.8 | 0.35 | 28.5 | 58.2 | 76.1 | – | –
3 | CNc1cc(Nc2ccc(P3(=O)CCN(C4CC4)CC3)cc2OC)nc2[nH]cc(C(F)(F)F)c12 [Example 205, 1-cyclopropyl-4-(3-methoxy-4-((4-(methylamino)-3-(trifluoromethyl)-1H-pyrrolo[2,3-b]pyridin-6-yl)amino)phenyl)-1,4-azaphosphinane 4-oxide] | – | 17 | 18 | 5.5 | – | – | – | – | –
4 | CCNc1cc(Nc2ccc(P3(=O)CCN(C4CC4)CC3)cc2OC)nc2[nH]cc(C(F)(F)F)c12 [Example 206, 1-cyclopropyl-4-(4-((4-(ethylamino)-3-(trifluoromethyl)-1H-pyrrolo[2,3-b]pyridin-6-yl)amino)-3-methoxyphenyl)-1,4-azaphosphinane 4-oxide] | – | 28 | 23 | 0.65 | – | – | – | – | –
5 | CNc1cc(Nc2ccc(C(=O)N3CC[C@H](N4CCOCC4)C3)c3c2OCC3)nc2[nH]cc(C(F)(F)F)c12 [Example 217, (S)-(7-((4-(methylamino)-3-(trifluoromethyl)-1H-pyrrolo[2,3-b]pyridin-6-yl)amino)-2,3-dihydrobenzofuran-4-yl)(3-morpholinopyrrolidin-1-yl)methanone] | – | 1 | 1 | 3 | 50.2 | 60.6 | 84.5 | – | –
6 | O=C(c1ccc(Nc2cc(C3CC3)c3c(C(F)(F)F)c[nH]c3n2)c2c1CCO2)N1CC[C@H](N2CCOCC2)C1 [Example 237, (S)-(7-((4-cyclopropyl-3-(trifluoromethyl)-1H-pyrrolo[2,3-b]pyridin-6-yl)amino)-2,3-dihydrobenzofuran-4-yl)(3-morpholinopyrrolidin-1-yl)methanone] | – | 31 | 36 | 3.5 | 7.7 | 20.5 | 34.5 | – | –
7 | O=C(c1ccc(Nc2cc(C3CC3)c3c(C(F)(F)F)c[nH]c3n2)c2c1CCO2)N1CC[C@@H](N2CCOCC2)C1 [Example 238, (R)-(7-((4-cyclopropyl-3-(trifluoromethyl)-1H-pyrrolo[2,3-b]pyridin-6-yl)amino)-2,3-dihydrobenzofuran-4-yl)(3-morpholinopyrrolidin-1-yl)methanone] | – | 38 | 48 | 4.1 | 9.8 | 26.4 | 48.3 | – | –
8 | CNc1cc(Nc2ccc(S(=O)(=O)N3CCC(N4C[C@H]5C[C@@H]4CO5)CC3)cc2OC)nc2[nH]cc(C(F)(F)F)c12 [Example 243, N^6-(4-((4-((1R,4R)-2-oxa-5-azabicyclo[2.2.1]heptan-5-yl)piperidin-1-yl)sulfonyl)-2-methoxyphenyl)-N^4-methyl-3-(trifluoromethyl)-1H-pyrrolo[2,3-b]pyridine-4,6-diamine] | 51 to 100 | – | – | – | 64.4 | 85 | 104 | 32.3 | 2.1

The next lines start with results.

Row | GI50 [1] [nM] | remaining binding at 1 µM [2] [%] | remaining binding at 1 µM [3] [%] | remaining binding at 1 µM [4] [%] | Structure (SMILES) | inhibition at 0.25 µM [5] [%] | inhibition at 0.5 µM [5] [%] | inhibition at 1 µM [5] [%] | inhibition at 0.5 µM [6] [%] | inhibition at 0.5 µM [7] [%]
9 | 301 to 1000 | 1.9 | 4.5 | 2.7 | CCNc1cc(Nc2ccc(S(=O)(=O)N3CCC(N4CCOCC4)CC3)c3c2OCCO3)nc2[nH]cc(C(F)(F)F)c12 [Example 96, N^4-ethyl-N^6-(8-((4-morpholonopiperidin-1-yl)sulfonyl)-2,3-dihydrobenzo [b] [1,4]dioxin-5-yl)-3-(trifluoromethyl)-1H-pyrrolo[2,3-b]pyridine-4,6-diamine] | 11 | 19.6 | 52.8 | – | –
10 | – | 0.35 | 2.8 | 3.4 | CNc1cc(Nc2ccc(C(=O)N3CCC(N4CCOCC4)CC3)c3c2OCCO3)nc2[nH]cc(C(F)(F)F)c12 [Example 160, (8-((4-(methylamino)-3-(trifluoromethyl)-1H-pyrrolo[2,3-b]pyridin-6-yl)amino)-2,3-dihydrobenzo [b] [1,4]dioxin-5-yl)(4-morpholinopiperidin-1-yl)methanone] | – | – | – | – | –
11 | – | 0.35 | 2.8 | 3.4 | CCCNc1cc(Nc2ccc(C(=O)N3CCC(N4CCOCC4)CC3)c3c2OCCO3)nc2[nH]cc(C(F)(F)F)c12 [Example 162, (4-morpholinopiperidin-1-yl)(8-((4-(propylamino)-3-(trifluoromethyl)-1H-pyrrolo[2,3-b]pyridin-6-yl)amino)-2,3-dihydrobenzo[b] [1,4]dioxin-5-yl)methanone] | – | – | – | – | –
12 | – | 5.5 | 14 | 4.5 | O=C(c1ccc(Nc2cc(C3CC3)c3c(C(F)(F)F)c[nH]c3n2)c2c1OCCO2)N1CCC(N2CCOCC2)CC1 [Example 221, (8-((4-cyclopropyl-3-(trifluoromethyl)-1H-pyrrolo[2,3-b]pyridin-6-yl)amino)-2,3-dihydrobenzo [b] [1,4]dioxin-5-yl)(4-morpholinopiperidin-1-yl)methanone] | 6.2 | 24.7 | 23 | – | –
13 | 301 to 1000 | – | – | – | CNc1cc(Nc2ccc(S(=O)(=O)N3CCC(N4CCOCC4)CC3)c3c2OCCO3)nc2[nH]cc(C(F)(F)F)c12 [Example 233, N^4-methyl-N^6-(8-((4-morpholinopiperidin-1-yl)sulfonyl)-2,3-dihydrobenzo [b] [1,4]dioxin-5-yl)-3-(trifluoromethyl)-1H-pyrrolo[2,3-b]pyridine-4,6-diamine] | 17.7 | 34.6 | 70.3 | 4.3 | 12.5
